Experimental data: US10722512B2, “Combinations of histone deacetylase inhibitors and either HER2 inhibitors or PI3K inhibitors” (Acetylon Pharmaceuticals, Inc., priority 2013, dated 2020)
Read-outs that look alike come from different tables or passages of the source.

Legend:
MCF-7 = experiment: Breast cancer cell viability, 48 hours, MTA assay; assay type: cell-based; conditions: for IC50: Homo sapiens
Excerpt: (§1) Cell viabilities were used to calculate “Fraction Affected” (Fa) and “Combination Index” (CI) values using the Chou-Talalay method. Any combination with a CI value<0.70 at a Fa value between 0.25 and 0.75 was defined as positive synergy.

MX-1 = experiment: Breast cancer cell viability, 48 hours, MTA assay; assay type: cell-based; conditions: for IC50: Homo sapiens
Excerpt: as §1

MDA-MB-361 = experiment: Breast cancer cell viability, 48 hours, MTA assay; assay type: cell-based; conditions: Homo sapiens
Excerpt: as §1

Bcap-37 = experiment: Breast cancer cell viability, 48 hours, MTA assay; assay type: cell-based; conditions: for IC50: Homo sapiens
Excerpt: as §1

BT474 = experiment: Breast cancer cell viability, 48 hours, MTA assay; assay type: cell-based; conditions: for IC50: Homo sapiens
Excerpt: as §1

MDA-MB-468 = experiment: Breast cancer cell viability, 48 hours, MTA assay; assay type: cell-based; conditions: for IC50: Homo sapiens
Excerpt: as §1

Hs578T = experiment: Breast cancer cell viability, 48 hours, MTA assay; assay type: cell-based; conditions: for IC50: Homo sapiens, Hs-578T
Excerpt: as §1

MDA-MB-231 = experiment: Breast cancer cell viability, 48 hours, MTA assay; assay type: cell-based; conditions: Homo sapiens
Excerpt: as §1

MDA-MB-453 [1] = experiment: Breast cancer cell viability, 48 hours, MTA assay; assay type: cell-based; conditions: for IC50: Homo sapiens
Excerpt: as §1

T-47D* = experiment: Breast cancer cell viability, 48 hours, MTA assay; assay type: cell-based; conditions: for IC50: Homo sapiens, T47D
Excerpt: as §1

BT-549 = experiment: Breast cancer cell viability, 48 hours, MTA assay; assay type: cell-based; conditions: for IC50: Homo sapiens
Excerpt: as §1

ZR-75-1 = experiment: Breast cancer cell viability, 48 hours, MTA assay; assay type: cell-based; conditions: for IC50: Homo sapiens
Excerpt: as §1

HCC38 = experiment: Breast cancer cell viability, 48 hours, MTA assay; assay type: cell-based; conditions: for IC50: Homo sapiens
Excerpt: as §1

HCC1937 = experiment: Breast cancer cell viability, 48 hours, MTA assay; assay type: cell-based; conditions: for IC50: Homo sapiens
Excerpt: as §1

SK-BR-3 = experiment: Breast cancer cell viability, 48 hours, MTA assay; assay type: cell-based; conditions: for IC50: Homo sapiens
Excerpt: as §1

MDA-MB-436 = experiment: Breast cancer cell viability, 48 hours, MTA assay; assay type: cell-based; conditions: Homo sapiens
Excerpt: as §1

[2] = Potentiation of PI3K inhibitor GDC-0941 by HDAC6 selective inhibitors (Example 7); assay type: cell-based; conditions: non-cytotoxic concentrations of the HDAC6 inhibitor
[3] = tested on: Her2 protein, p-EGFR, p-AKT in MDA-MB-453; experiment: Her2 protein, p-EGFR and p-AKT levels after treatment; assay type: cell-based; conditions: Her2+ breast cancer cell line MDA-MB-453
[4] = tested on: panel of nearly 100 human tumor cell lines; experiment: Anti-tumor activity in a panel of nearly 100 human tumor cell lines; assay type: cell-based; conditions: Her2+ breast cancer cells versus other major cancer types
BT-474 = experiment: Potentiation effect of HDAC6 inhibitors on Her2+ breast cancer cell lines; assay type: cell-based; conditions: for cytotoxicity of HDAC6 inhibitor alone: BT-474, at the tested concentrations
Experimental: (§2) The IC50 (Inhibitory Concentration at which 50% of the cells are viable) values of these 4 anti-breast cancer compounds were calculated in the presence of increasing concentrations of a HDAC6 inhibitor.

MDA-MB-453 [5] = experiment: as above; assay type: cell-based; conditions: for cytotoxicity of HDAC6 inhibitor alone: MDA-MB-453, at the tested concentrations
Experimental: as §2

[6] = tested on: A549 and MDA-MB-231 cancer cells; experiment: Migration assay; assay type: cell-based; conditions: in the presence or absence of epidermal growth factor (EGF)
Experimental: Many cultured cancer cells are able to migrate across a membrane and this activity indicates the metastatic potential of the cancer cells. The migration of two cancer cells, A549 and MDA-MB-231, were compared in the presence or absence of a HDAC6 inhibitor. The cancer cells were seeded and grown on a membrane surface, and the cell numbers on the other side of the membrane were counted under a microscope after 12 hours. […] In the study, an HDAC inhibitor was added to the cells either 2 hours before or when the migration was measured. The effect of HDAC6 inhibitor on Epidermal Growth Factor (EGF) stimulated cancer cell migration using 20 ng/ml of EGF in the assay was investigated.
The protocol for the Migration Assay was as follows. The compounds were prepared in DMSO at 400× stock of the final required concentrations.
200 μl of warm basal RPMI1640 medium was added to the interior of the inserts, allowed to rehydrate for 2 hours in a humidified tissue culture incubator at 37° C., 5% CO2 atmosphere. […] The number of migrated cells were counted under a microscope in five fields at 100× magnification. The viable cells were seeded in the 96 well plate with the same treatment as in the migration assay were measured using CTG (Cell Titer Glow).

HDAC6 = target: T1, HDAC6 (Homo sapiens, UniProt Q9UBN7); experiment: HDAC enzyme assays; assay type: biochemical
T1 construct: purchased BPS Biosciences
Experimental: Compounds for testing were diluted in DMSO to 50 fold the final concentration and a ten point three fold dilution series was made. […] The final enzyme concentrations used in these assays were 3.3 ng/ml (HDAC1), 0.2 ng/ml (HDAC2), 0.08 ng/ml (HDAC3) and 2 ng/ml (HDAC6). […] The IC50 was determined using Graph Pad Prism by a four parameter curve fit.

[7] = tested on: Her2+ breast cancer cells; assay type: cell-based

T1 sequence (Q9UBN7 whole entry): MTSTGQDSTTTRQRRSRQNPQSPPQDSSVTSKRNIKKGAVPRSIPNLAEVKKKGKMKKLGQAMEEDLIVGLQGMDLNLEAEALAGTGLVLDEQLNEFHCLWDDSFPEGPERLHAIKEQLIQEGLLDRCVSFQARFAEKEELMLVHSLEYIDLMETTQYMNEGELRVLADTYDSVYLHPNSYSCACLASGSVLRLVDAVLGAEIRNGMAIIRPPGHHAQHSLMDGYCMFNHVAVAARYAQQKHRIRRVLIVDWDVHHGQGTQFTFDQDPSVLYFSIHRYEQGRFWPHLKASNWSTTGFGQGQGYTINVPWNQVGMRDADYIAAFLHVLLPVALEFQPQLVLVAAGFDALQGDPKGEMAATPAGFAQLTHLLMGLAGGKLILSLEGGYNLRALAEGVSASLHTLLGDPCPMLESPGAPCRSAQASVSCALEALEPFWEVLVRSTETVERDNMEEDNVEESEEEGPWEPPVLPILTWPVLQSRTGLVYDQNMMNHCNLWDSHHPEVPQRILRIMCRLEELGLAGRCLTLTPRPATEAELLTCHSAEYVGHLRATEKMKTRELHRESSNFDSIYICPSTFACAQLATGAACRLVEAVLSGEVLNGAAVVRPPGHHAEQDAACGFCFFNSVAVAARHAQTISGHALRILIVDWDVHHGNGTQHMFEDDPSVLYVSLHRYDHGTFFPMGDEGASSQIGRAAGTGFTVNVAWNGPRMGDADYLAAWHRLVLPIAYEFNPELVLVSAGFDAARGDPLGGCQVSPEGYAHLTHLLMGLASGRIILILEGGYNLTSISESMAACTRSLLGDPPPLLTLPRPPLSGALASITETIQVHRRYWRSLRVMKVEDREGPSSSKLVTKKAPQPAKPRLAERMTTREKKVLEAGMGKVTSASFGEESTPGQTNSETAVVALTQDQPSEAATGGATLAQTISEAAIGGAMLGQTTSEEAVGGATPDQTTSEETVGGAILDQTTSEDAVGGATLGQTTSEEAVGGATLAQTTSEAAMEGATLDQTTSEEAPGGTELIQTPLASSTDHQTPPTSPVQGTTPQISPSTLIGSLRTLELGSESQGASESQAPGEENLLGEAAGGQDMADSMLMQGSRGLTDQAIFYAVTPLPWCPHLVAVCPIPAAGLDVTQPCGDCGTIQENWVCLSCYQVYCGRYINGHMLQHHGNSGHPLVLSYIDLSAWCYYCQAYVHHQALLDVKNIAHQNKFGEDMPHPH

O=C(CCCCCCNC(=O)c1cnc(N(c2ccccc2)c2ccccc2)nc1)NO [Compound A, 2-(diphenylamino)-N-(7-(hydroxyamino)-7-oxoheptyl) pyrimidine-5-carboxamide]
IC50 (MCF-7; MCF7, 48 h): 8.95 µM
IC50 (MX-1; MX1, 48 h): 6.38 µM
IC50 (MDA-MB-361; MDA-MB-361, 48 h): 4.51 µM
IC50 (Bcap-37; Bcap37, 48 h): 7.66 µM
IC50 (BT474; BT-474, 48 h): 2.32 µM
IC50 (MDA-MB-468; MDA-MB-468, 48 h): 14.9 µM
IC50 (Hs578T; 48 h): 5.57 µM
IC50 (MDA-MB-231; MDA-MB-231, 48 h): 7.49 µM
IC50 (MDA-MB-453 [1]; MDA-MB-453, 48 h): 1.25 µM
IC50 (T-47D*; 48 h): 5 µM
IC50 (BT-549; BT-549, 48 h): 8.97 µM
IC50 (ZR-75-1; ZR-75-1, 48 h): 3.57 µM
IC50 (HCC38; HCC38, 48 h): 7.76 µM
IC50 (HCC1937; HCC1937, 48 h): 11.2 µM
IC50 (SK-BR-3; SK-BR-3, 48 h): 1.94 µM
IC50 (MDA-MB-436; MDA-MB-436, 48 h): 25.7 µM
potentiation of GDC-0941 (decrease in the IC50 value) [2]: GDC-0941 becomes more potent
Her2 protein, p-EGFR and p-AKT levels [3]: decrease of Her2 protein, p-EGFR, and p-AKT
sensitivity of Her2+ breast cancer cells within the panel [4]: among the most sensitive cells
cytotoxicity of HDAC6 inhibitor alone (BT-474): not cytotoxic
cytotoxicity of HDAC6 inhibitor alone (MDA-MB-453 [5]): not cytotoxic

O=C(NO)c1cnc(NC2(c3cccc(F)c3)CCCCC2)nc1 [Compound C, 2-((1-(3-fluorophenyl)cyclohexyl)amino)-N-hydroxypyrimidine-5-carboxamide]
potentiation of GDC-0941 (decrease in the IC50 value) [2]: GDC-0941 becomes more potent
cancer cell migration [6]: blocked cancer cell migration
cytotoxicity of HDAC6 inhibitor alone (BT-474): not cytotoxic
sensitization to lapatinib and PI3K inhibitors (BT-474; BT-474, lapatinib, IPI-145, GDC-0941 and CAL-101): able to sensitize
cytotoxicity of HDAC6 inhibitor alone (MDA-MB-453 [5]): not cytotoxic
sensitization to lapatinib and PI3K inhibitors (MDA-MB-453 [5]; MDA-MB-453, lapatinib, IPI-145, GDC-0941 and CAL-101): able to sensitize
potency as HDAC6 selective inhibitor (HDAC6): low nM potency

CS(=O)(=O)CCNCc1ccc(-c2ccc3ncnc(Nc4ccc(OCc5cccc(F)c5)c(Cl)c4)c3c2)o1 [Lapatinib]
IC50 (MCF-7; MCF7, MCF-7, single agent, 48 hours, read-out: IC50): 5.78 µM
Synergy (MCF-7; MCF-7, combination with cmpd A, 48 hours, Chou-Talalay CI): S (Any combination with a CI value<0.70 at a Fa value between 0.25 and 0.75 was defined as positive synergy)
IC50 (MX-1; MX1, MX-1, single agent, 48 hours, read-out: IC50): 1.01 µM
Synergy (MX-1; MX-1, combination with cmpd A, 48 hours, Chou-Talalay CI): S (Any combination with a CI value<0.70 at a Fa value between 0.25 and 0.75 was defined as positive synergy)
IC50 (MDA-MB-361; MDA-MB-361, single agent, 48 hours, read-out: IC50): 9.31 µM
Synergy (Bcap-37; Bcap-37, combination with cmpd A, 48 hours, Chou-Talalay CI): S (Any combination with a CI value<0.70 at a Fa value between 0.25 and 0.75 was defined as positive synergy)
IC50 (Bcap-37; Bcap37, Bcap-37, single agent, 48 hours, read-out: IC50): 10.9 µM
Synergy (BT474; BT474, combination with cmpd A, 48 hours, Chou-Talalay CI): S (Any combination with a CI value<0.70 at a Fa value between 0.25 and 0.75 was defined as positive synergy)
IC50 (BT474; BT-474, BT474, single agent, 48 hours, read-out: IC50): 0.04 µM
IC50 (MDA-MB-468; MDA-MB-468, single agent, 48 hours, read-out: IC50): 5.6 µM
Synergy (MDA-MB-468; MDA-MB-468, combination with cmpd A, 48 hours, Chou-Talalay CI): S (Any combination with a CI value<0.70 at a Fa value between 0.25 and 0.75 was defined as positive synergy)
IC50 (Hs578T; Hs578T, single agent, 48 hours, read-out: IC50): 5.77 µM
Synergy (Hs578T; Hs578T, combination with cmpd A, 48 hours, Chou-Talalay CI): S (Any combination with a CI value<0.70 at a Fa value between 0.25 and 0.75 was defined as positive synergy)
IC50 (MDA-MB-231; MDA-MB-231, single agent, 48 hours, read-out: IC50): 7.17 µM
IC50 (MDA-MB-453 [1]; MDA-MB-453, single agent, 48 hours, read-out: IC50): 0.13 µM
Synergy (MDA-MB-453 [1]; MDA-MB-453, combination with cmpd A, 48 hours, Chou-Talalay CI): S (Any combination with a CI value<0.70 at a Fa value between 0.25 and 0.75 was defined as positive synergy)
IC50 (T-47D*; T-47D*, single agent, 48 hours, read-out: IC50): 23.3 µM
Synergy (T-47D*; T-47D*, combination with cmpd A, 48 hours, Chou-Talalay CI): S (Any combination with a CI value<0.70 at a Fa value between 0.25 and 0.75 was defined as positive synergy)
Synergy (BT-549; BT-549, combination with cmpd A, 48 hours, Chou-Talalay CI): S (Any combination with a CI value<0.70 at a Fa value between 0.25 and 0.75 was defined as positive synergy)
IC50 (BT-549; BT-549, single agent, 48 hours, read-out: IC50): 6.53 µM
IC50 (ZR-75-1; ZR-75-1, single agent, 48 hours, read-out: IC50): 2.69 µM
Synergy (ZR-75-1; ZR-75-1, combination with cmpd A, 48 hours, Chou-Talalay CI): S (Any combination with a CI value<0.70 at a Fa value between 0.25 and 0.75 was defined as positive synergy)
Synergy (HCC38; HCC38, combination with cmpd A, 48 hours, Chou-Talalay CI): S (Any combination with a CI value<0.70 at a Fa value between 0.25 and 0.75 was defined as positive synergy)
IC50 (HCC38; HCC38, single agent, 48 hours, read-out: IC50): 5.05 µM
Synergy (HCC1937; HCC1937, combination with cmpd A, 48 hours, Chou-Talalay CI): S (Any combination with a CI value<0.70 at a Fa value between 0.25 and 0.75 was defined as positive synergy)
IC50 (HCC1937; HCC1937, single agent, 48 hours, read-out: IC50): 5.56 µM
IC50 (SK-BR-3; SK-BR-3, single agent, 48 hours, read-out: IC50): 0.06 µM
Synergy (SK-BR-3; SK-BR-3, combination with cmpd A, 48 hours, Chou-Talalay CI): S (Any combination with a CI value<0.70 at a Fa value between 0.25 and 0.75 was defined as positive synergy)
IC50 (MDA-MB-436; MDA-MB-436, single agent, 48 hours, read-out: IC50): 9.31 µM
cytotoxicity of the combination with Compound A [7]: synergistic cytotoxicity
